As a reminder, the IC50 is the concentration needed to halve the response being measured. Low values mean greater potency, high ones weaker potency. In general, MIC refers to the lowest concentration found to suppress growth.

We go through 1 molecule from ChEMBL document CHEMBL5365497, “Developing Novel Coumarin-Containing Azoles Antifungal Agents by the Scaffold Merging Strategy for Treating Azole-Resistant Candidiasis” (J Med Chem, 2023).

≈ marks a conversion by molar mass, not a printed value. Calls of active or inactive are those of the source. The rule behind the calls is not given here.

For one data set, the target named is Cytochrome P450 2C19 (Homo sapiens, UniProt P33261). Kind of data set: Inhibition of CYP2C19 in human liver microsomes using […] as substrate preincubated for 5 mins followed by NADPH addition by LC-MS/MS analysis. In kind it is ADME, Microsome. On the technique in general: Liver microsomes are vesicles of endoplasmic reticulum, rich in cytochrome P450 enzymes.
Chain of Cytochrome P450 2C19 (P33261 whole entry): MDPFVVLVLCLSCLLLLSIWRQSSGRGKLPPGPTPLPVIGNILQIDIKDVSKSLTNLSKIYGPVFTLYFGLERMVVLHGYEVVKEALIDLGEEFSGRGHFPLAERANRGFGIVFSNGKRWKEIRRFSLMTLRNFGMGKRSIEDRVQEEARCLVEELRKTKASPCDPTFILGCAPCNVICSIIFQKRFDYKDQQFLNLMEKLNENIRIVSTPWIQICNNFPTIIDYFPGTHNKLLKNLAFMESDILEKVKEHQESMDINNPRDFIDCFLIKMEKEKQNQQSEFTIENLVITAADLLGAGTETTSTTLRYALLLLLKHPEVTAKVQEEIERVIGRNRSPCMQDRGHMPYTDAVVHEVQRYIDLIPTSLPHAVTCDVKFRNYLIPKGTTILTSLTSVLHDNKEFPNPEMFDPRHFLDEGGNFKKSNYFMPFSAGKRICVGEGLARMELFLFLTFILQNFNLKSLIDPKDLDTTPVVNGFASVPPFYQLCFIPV

The test system of data set [1] is Candida albicans. Kind of data set: Antifungal activity against Candida albicans CPCC400616 assessed as reduction in CPH1 expression at 2 ug/ml incubated for 12 hrs by RT-PCR analysis. In kind it is functional, organism-based. The note with it: dose 2.0 µg/ml.
The next data set addresses T1, Cytochrome P450 1A2 (Homo sapiens, UniProt P05177).
T1 sequence (P05177 whole entry): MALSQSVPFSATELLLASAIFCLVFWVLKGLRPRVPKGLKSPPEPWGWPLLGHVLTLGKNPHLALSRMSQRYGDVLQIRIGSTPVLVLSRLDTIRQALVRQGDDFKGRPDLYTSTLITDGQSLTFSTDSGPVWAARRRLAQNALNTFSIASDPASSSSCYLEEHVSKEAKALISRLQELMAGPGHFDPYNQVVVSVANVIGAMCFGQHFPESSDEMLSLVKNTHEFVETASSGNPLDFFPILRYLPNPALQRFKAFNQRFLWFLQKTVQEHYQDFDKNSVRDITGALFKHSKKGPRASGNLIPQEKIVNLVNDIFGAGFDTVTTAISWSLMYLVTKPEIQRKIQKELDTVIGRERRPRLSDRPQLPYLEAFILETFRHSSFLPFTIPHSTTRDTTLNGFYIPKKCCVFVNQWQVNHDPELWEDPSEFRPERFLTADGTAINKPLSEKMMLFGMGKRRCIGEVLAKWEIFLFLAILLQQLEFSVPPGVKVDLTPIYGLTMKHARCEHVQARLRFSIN
Kind of data set: Inhibition of CYP1A2 in human liver microsomes using phenacetin as substrate preincubated for 5 mins followed by NADPH addition by LC-MS/MS analysis. In kind it is ADME, Microsome.

The subject of a further data set is Cryptococcus neoformans. Kind of data set: Antifungal activity against Cryptococcus neoformans assessed as fungal growth inhibition by CLSI based microdilution method. In kind it is functional. In general terms: In broth dilution the organism is exposed to a series of concentrations in liquid medium.
Data set [2] concerns Candida albicans. Kind of data set: Antifungal activity against fluconazole-resistant Candida albicans 904 assessed as reduction in TEC1 expression at 16 ug/ml incubated for 12 hrs by RT-PCR analysis. In kind it is functional, organism-based. The note with it: dose 16.0 µg/ml.
The nature of data set [3]: Subacute toxicity in female KM mouse assessed as kidney inflammation at 100 mg/kg administered via gavage daily for 7 days. The settings on record: in vivo, po, 168 h, time 7 day. In kind it is organism-based.
Data set [4] relates to Candida albicans. In words: Antifungal activity against fluconazole-resistant Candida albicans 632 assessed as fungal growth inhibition by CLSI based microdilution method. In kind it is functional.
Data set [5] relates to Candida albicans. In words: Antifungal activity against Candida albicans SC5314 assessed as destruction of cell wall at 16 ug/ml incubated for 24 hrs by TEM analysis. In kind it is functional, organism-based. The settings on record: dose 16.0 µg/ml.
Data set [6] has as its system Candida albicans. Kind of data set: Antifungal activity against Candida albicans SC5314 infected in ICR mouse assessed as reduction in fungal kidney burden by measuring CFU at 0.6 mg/kg, ip measured after 5 days. In kind it is functional, organism-based. The settings on record: time 5.0 day.
Data set [7] relates to Candida albicans. Kind of data set: Antifungal activity against fluconazole-resistant Candida albicans 904 assessed as decrease in ERG11 expression at 16 ug/ml measured after 16 hrs by RT-PCR analysis. In kind it is functional, organism-based. The note with it: dose 16.0 µg/ml.
Data set [8] concerns Candida albicans. Kind of data set: Antifungal activity against fluconazole-resistant Candida albicans 17# assessed as fungal growth inhibition by CLSI based microdilution method. In kind it is functional.
Another data set has as its target Cytochrome P450 2D6 (Homo sapiens, UniProt P10635). In words: Inhibition of CYP2D6 in human liver microsomes using dextromethorphan as substrate preincubated for 5 mins followed by NADPH addition by LC-MS/MS analysis. In kind it is ADME, Microsome.
The nature of data set [9]: Subacute toxicity in female KM mouse assessed as liver inflammation at 100 mg/kg administered via gavage daily for 14 days. In kind it is organism-based. The settings on record: in vivo, po, 336 h, time 14 day.
Data set [10] can be described thus: Subacute toxicity in KM mouse assessed as abnormal behaviour at 100 mg/kg administered via gavage daily for 14 days. In kind it is organism-based. The settings on record: in vivo, po, 336 h, time 14 day.
The test system of data set [11] is Candida albicans. Kind of data set: Antibiofilm activity against fluconazole-resistant Candida albicans 904 incubated for 24 hrs by XTT reduction assay. In kind it is functional, organism-based. The settings on record: dose <= 128.0 µg/ml. A general note: Tetrazolium dyes change colour on reduction, which living cells bring about.
The subject of data set [12] is Candida albicans. Kind of data set: Antifungal activity against fluconazole-resistant Candida albicans 904 assessed as reduction in […] cell count at 16 times MIC incubated for 24 hrs by time-kill assay (reference value: 4 log10CFU/mL). In kind it is functional.
A further data set has as its target Cytochrome P450 2C9 (Homo sapiens, UniProt P11712). Kind of data set: Inhibition of CYP2C9 in human liver microsomes using diclofenac as substrate preincubated for 5 mins followed by NADPH addition by LC-MS/MS analysis. In kind it is ADME, Microsome.
Data set [13] addresses Lanosterol 14-alpha demethylase (Candida albicans (strain SC5314 / ATCC MYA-2876) (Yeast), UniProt P10613). In words: Inhibition of CYP51 in Candida albicans SC5314 assessed as increase in eburicol level at 0.03125 ug/ml incubated for 24 hrs by GC-MS analysis. The settings on record: at 0.03125 µg/mL.
Data set [14] concerns Candida albicans. Kind of data set: Antifungal activity against fluconazole-resistant Candida albicans 904 assessed as reduction in CPH1 expression at 16 ug/ml incubated for 12 hrs by RT-PCR analysis. In kind it is functional, organism-based. The note with it: dose 16.0 µg/ml.

Chain of Lanosterol 14-alpha demethylase (P10613 whole entry): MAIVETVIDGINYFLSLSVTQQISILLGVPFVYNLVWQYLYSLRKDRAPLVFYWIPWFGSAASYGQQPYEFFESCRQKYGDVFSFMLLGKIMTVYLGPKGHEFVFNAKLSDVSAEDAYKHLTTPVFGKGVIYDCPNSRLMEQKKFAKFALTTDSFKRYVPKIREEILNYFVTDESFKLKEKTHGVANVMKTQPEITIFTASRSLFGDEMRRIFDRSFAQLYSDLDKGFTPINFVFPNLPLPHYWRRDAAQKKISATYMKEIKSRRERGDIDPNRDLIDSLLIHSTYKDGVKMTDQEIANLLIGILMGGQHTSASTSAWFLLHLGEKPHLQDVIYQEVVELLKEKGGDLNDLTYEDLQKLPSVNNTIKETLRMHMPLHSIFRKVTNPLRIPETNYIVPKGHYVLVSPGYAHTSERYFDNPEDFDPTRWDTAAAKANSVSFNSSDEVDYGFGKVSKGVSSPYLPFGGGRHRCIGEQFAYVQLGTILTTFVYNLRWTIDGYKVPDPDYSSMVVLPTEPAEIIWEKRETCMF
Chain of Cytochrome P450 2C9 (P11712 whole entry): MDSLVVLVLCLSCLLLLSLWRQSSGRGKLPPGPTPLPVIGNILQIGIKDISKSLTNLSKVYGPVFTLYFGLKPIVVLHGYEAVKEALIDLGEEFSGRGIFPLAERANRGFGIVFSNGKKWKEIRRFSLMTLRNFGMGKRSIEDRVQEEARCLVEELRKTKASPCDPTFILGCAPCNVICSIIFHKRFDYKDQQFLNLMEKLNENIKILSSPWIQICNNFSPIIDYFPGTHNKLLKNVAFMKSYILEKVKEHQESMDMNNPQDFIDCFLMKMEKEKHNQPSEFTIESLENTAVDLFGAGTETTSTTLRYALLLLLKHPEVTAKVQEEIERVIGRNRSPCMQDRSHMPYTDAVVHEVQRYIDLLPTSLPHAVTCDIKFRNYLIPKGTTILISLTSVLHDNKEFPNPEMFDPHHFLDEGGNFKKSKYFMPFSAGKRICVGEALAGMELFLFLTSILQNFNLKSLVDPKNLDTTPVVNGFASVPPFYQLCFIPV
Chain of Cytochrome P450 2D6 (P10635 whole entry): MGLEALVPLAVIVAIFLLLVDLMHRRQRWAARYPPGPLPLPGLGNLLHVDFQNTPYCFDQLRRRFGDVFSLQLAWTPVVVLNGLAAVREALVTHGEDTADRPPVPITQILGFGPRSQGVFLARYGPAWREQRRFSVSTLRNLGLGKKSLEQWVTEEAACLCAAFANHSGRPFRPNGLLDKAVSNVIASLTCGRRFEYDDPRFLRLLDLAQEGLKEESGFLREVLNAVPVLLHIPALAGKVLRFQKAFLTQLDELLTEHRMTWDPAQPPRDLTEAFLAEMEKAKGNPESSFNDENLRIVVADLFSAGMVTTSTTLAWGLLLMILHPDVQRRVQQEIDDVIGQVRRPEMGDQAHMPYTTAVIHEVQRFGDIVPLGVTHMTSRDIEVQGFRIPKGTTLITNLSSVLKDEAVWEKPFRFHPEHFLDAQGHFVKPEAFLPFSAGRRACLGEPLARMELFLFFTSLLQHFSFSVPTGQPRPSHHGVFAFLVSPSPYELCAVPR

`O=c1ccc2ccc(COC(Cn3ccnc3)c3ccc(Cl)cc3Cl)cc2o1` (centres undefined): the IC50 was determined as 227 nM at Cytochrome P450 2C19, 6010 nM against Cytochrome P450 1A2, 1140 nM against Cytochrome P450 2D6 and 138 nM at Cytochrome P450 2C9. In addition, the outcome in the data set on Candida albicans [1], in the data set on Candida albicans [2], in the data set on Candida albicans [5], in the data set with Candida albicans [6], in the data set with Candida albicans [7] and with Candida albicans [14] was Active. Also, the MIC in the data set on Cryptococcus neoformans worked out at 2 µg/mL (≈ 4.82 µM); in the data set on Candida albicans [4], 4 µg/mL (≈ 9.63 µM); with Candida albicans [8] it was 4 µg/mL (≈ 9.63 µM). Also, the Activity entry is “Non-Toxic” in data set [3]; “Toxic” in [9]; “Non-Toxic” in data set [10]; “Dose-Dependent Effect” with Candida albicans [11]; 2 log10CFU/ml in the data set with Candida albicans [12]. Moreover, the “inhibition (INH)” value in [13] is reported as “Active”.
